Converted amounts (≈) assume the structure as drawn. Read-outs that look alike come from different tables or passages of the source.
Experiments:
[1] = tested on: Mycobacterium tuberculosis H37Rv (ATCC 27294); type: cell-based; conditions: for Log reduction in CFU: vs drug-free control
[2] = tested on: clinical isolates of Mycobacterium tuberculosis; test: microbe, parasite or virus in culture; type: cell-based; conditions: for MIC: Mycobacterium tuberculosis
[3] = tested on: M. tuberculosis Erdman pFCA LuxAB; conditions: for reduction compared to the vehicle group: conjugate 100, rifampicin 10, metronidazole 200 mg/kg; for Log reduction compared to untreated group / Log10 CFU counts in the lungs, Average: QD for 12 days; for Log reduction compared to untreated group / Log10 CFU counts in the lungs, Mouse A / Log10 CFU counts in the lungs, Mouse B / Log10 CFU counts in the lungs, Mouse C / Log10 CFU counts in the lungs, Mouse D / Log10 CFU counts in the lungs, Mouse E / Log10 CFU counts in the lungs, Mouse F / Log10 CFU counts in the lungs, Average: conjugate 100, linezolid 100, PA-824 50, rifampicin 10, metronidazole 200 mg/kg; for Log10 CFU counts in the lungs, Mouse A / Log10 CFU counts in the lungs, Mouse B / Log10 CFU counts in the lungs, Mouse C / Log10 CFU counts in the lungs, Mouse D / Log10 CFU counts in the lungs, Mouse E / Log10 CFU counts in the lungs, Mouse F / Log10 CFU counts in the lungs, Average: day 21; for Log10 CFU counts in the lungs, Mouse A / Log10 CFU counts in the lungs, Mouse B / Log10 CFU counts in the lungs, Mouse C / Log10 CFU counts in the lungs, Mouse D / Log10 CFU counts in the lungs, Mouse E / Log10 CFU counts in the lungs, Mouse F: QD for 12 days from day 7; for Log10 CFU counts in the lungs, Average: group average, 6 mice
[4] = 168 h, clinical isolate strain 1, air with 5% CO2, 7H9/10% OADC, 7 days
[5] = 168 h, clinical isolate strain 2, air with 5% CO2, 7H9/10% OADC, 7 days
[6] = 168 h, clinical isolate strain 3, air with 5% CO2, 7H9/10% OADC, 7 days
[7] = 168 h, clinical isolate strain 4, air with 5% CO2, 7H9/10% OADC, 7 days
[8] = 168 h, clinical isolate strain 5, air with 5% CO2, 7H9/10% OADC, 7 days
[9] = 168 h, clinical isolate strain 6, air with 5% CO2, 7H9/10% OADC, 7 days
[10] = 168 h, clinical isolate strain 7, air with 5% CO2, 7H9/10% OADC, 7 days
[11] = 168 h, clinical isolate strain 8, air with 5% CO2, 7H9/10% OADC, 7 days
[12] = 168 h, clinical isolate strain 9, air with 5% CO2, 7H9/10% OADC, 7 days
[13] = 168 h, clinical isolate strain 10, air with 5% CO2, 7H9/10% OADC, 7 days
[14] = 168 h, clinical isolate strain 11 (sensitive strain), air with 5% CO2, 7H9/10% OADC, 7 days
[15] = read-out: MIC values against sensitive tuberculosis strains, sensitive tuberculosis strains, air containing 5% CO2

Row | Structure (SMILES) | MIC [2, 4] | MIC [2, 5] | MIC [2, 6] | MIC [2, 7] | MIC [2, 8] | MIC [2, 9] | MIC [2, 10] | MIC [2, 11] | MIC [2, 12] | MIC [2, 13] | MIC [2, 14] | CFU/mL ([1]; concentration 20 μg/mL) | Log reduction in CFU ([1]; concentration 20 μg/mL) | Log reduction compared to untreated group ([3]; […]) | Log10 CFU counts in the lungs, Mouse A [3] | Log10 CFU counts in the lungs, Mouse B [3] | Log10 CFU counts in the lungs, Mouse C [3] | Log10 CFU counts in the lungs, Mouse D [3] | Log10 CFU counts in the lungs, Mouse E [3] | Log10 CFU counts in the lungs, Average [3] | further results
1 | NNC(=O)c1ccncc1 [Isoniazid, isoniazid] | > 40 µg/mL | 2.5 µg/mL (≈ 18.2 µM) | 10 µg/mL (≈ 72.9 µM) | > 40 µg/mL | 5 µg/mL (≈ 36.5 µM) | 0.313 µg/mL (≈ 2.28 µM) | 5 µg/mL (≈ 36.5 µM) | 2.5 µg/mL (≈ 18.2 µM) | > 40 µg/mL | > 40 µg/mL | 0.039 µg/mL (≈ 0.284 µM) | – | – | – | – | – | – | – | – | – | CFU/mL ([1]; concentration 10 μg/mL): 3.14E+08 CFU/mL; Log reduction in CFU ([1]; concentration 10 μg/mL): −0.12; MIC [2, 15]: 0.039 µg/mL (≈ 0.284 µM)
2 | CO[C@H]1/C=C/O[C@@]2(C)Oc3c(C)c(O)c4c(c3C2=O)C2=NC3(CCN(CCn5c([N+](=O)[O-])cnc5C)CC3)NC2=C(NC(=O)/C(C)=C\C=C\[C@H](C)[C@H](O)[C@@H](C)[C@@H](O)[C@@H](C)[C@H](OC(C)=O)[C@@H]1C)C4=O | 2 µg/mL (≈ 2.12 µM) | 0.5 µg/mL (≈ 0.53 µM) | 2 µg/mL (≈ 2.12 µM) | 2 µg/mL (≈ 2.12 µM) | 2 µg/mL (≈ 2.12 µM) | 1 µg/mL (≈ 1.06 µM) | 2 µg/mL (≈ 2.12 µM) | 2 µg/mL (≈ 2.12 µM) | 0.5 µg/mL (≈ 0.53 µM) | 1 µg/mL (≈ 1.06 µM) | 0.016 µg/mL (≈ 0.0169 µM) | 2.50E+03 CFU/mL | 4.98 | 4.18 | 2.48 Log10 CFU | 2.18 Log10 CFU | 3.02 Log10 CFU | 2.48 Log10 CFU | 3.80 Log10 CFU | 2.69 Log10 CFU | reduction of bacterial count of wild-type Mycobacterium Tuberculosis compared to the drug-free group ([1]; at both tested concentrations (20 μg/mL and 5 μg/mL)): > 4 Log10 CFU; CFU/mL ([1]; concentration 5 μg/mL): 9.75E+03 CFU/mL; Log reduction in CFU ([1]; concentration 5 μg/mL): 4.39; reduction compared to the pre-treatment ([3]; […], 100 mg/kg orally QD, 12 consecutive days): 0.69 log CFU; reduction compared to the vehicle group ([3]; […], 12 consecutive days): 4 log CFU; activity compared to vehicle, rifampicin, metronidazole, linezolid and PA-824 control groups ([3]; […], one-way ANOVA, 95% level of confidence): significantly superior; Log10 CFU counts in the lungs, Mouse F [3]: 2.18 Log10 CFU; drug-related tolerance issues ([3]; mice, after 12 consecutive days of administration, 100 mg/kg QD): no drug-related tolerance issues were observed; MIC [2, 15]: 0.016 µg/mL (≈ 0.0169 µM)
3 | O=[N+]([O-])c1cn2c(n1)OC[C@@H](OCc1ccc(OC(F)(F)F)cc1)C2 [PA-824] | – | – | – | – | – | – | – | – | – | – | – | – | – | 3.04 | 3.29 Log10 CFU | 4.00 Log10 CFU | 4.06 Log10 CFU | 3.65 Log10 CFU | 4.01 Log10 CFU | 3.83 Log10 CFU | Log10 CFU counts in the lungs, Mouse F [3]: 3.97 Log10 CFU
4 | CO[C@H]1/C=C/O[C@@]2(C)Oc3c(C)c(O)c4c(O)c(c(/C=N/N5CCN(C)CC5)c(O)c4c3C2=O)NC(=O)/C(C)=C\C=C\[C@H](C)[C@H](O)[C@@H](C)[C@@H](O)[C@@H](C)[C@H](OC(C)=O)[C@@H]1C [Rifampicin, rifampicin] | > 40 µg/mL | 5 µg/mL (≈ 6.08 µM) | > 40 µg/mL | > 40 µg/mL | > 40 µg/mL | > 40 µg/mL | > 40 µg/mL | > 40 µg/mL | 20 µg/mL (≈ 24.3 µM) | 40 µg/mL (≈ 48.6 µM) | 0.039 µg/mL (≈ 0.0474 µM) | 1.23E+07 CFU/mL | 1.29 | 0.58 | 6.29 Log10 CFU | 6.55 Log10 CFU | 6.66 Log10 CFU | 6.24 Log10 CFU | 5.52 Log10 CFU | 6.29 Log10 CFU | CFU/mL ([1]; concentration 5 μg/mL): 2.19E+07 CFU/mL; Log reduction in CFU ([1]; concentration 5 μg/mL): 1.04; reduction compared to the vehicle group ([3]; […], 12 consecutive days): 0.65 log CFU; Log10 CFU counts in the lungs, Mouse F [3]: 6.46 Log10 CFU; MIC [2, 15]: 0.039 µg/mL (≈ 0.0474 µM)
5 | CC(=O)NC[C@H]1CN(c2ccc(N3CCOCC3)c(F)c2)C(=O)O1 [linezolid] | – | – | – | – | – | – | – | – | – | – | – | – | – | 1.57 | 5.86 Log10 CFU | 4.61 Log10 CFU | 5.76 Log10 CFU | 4.59 Log10 CFU | 5.13 Log10 CFU | 5.30 Log10 CFU | –
6 | CO[C@H]1/C=C/O[C@@]2(C)Oc3c(C)c(O)c4c(O)c(c(/C=N/N5CCN(C6CCCC6)CC5)c(O)c4c3C2=O)NC(=O)/C(C)=C\C=C\[C@H](C)[C@H](O)[C@@H](C)[C@@H](O)[C@@H](C)[C@H](OC(C)=O)[C@@H]1C [Rifapentine, rifapentine] | – | – | – | – | – | – | – | – | – | – | – | 1.91E+07 CFU/mL | 1.1 | – | – | – | – | – | – | – | CFU/mL ([1]; concentration 5 μg/mL): 1.80E+07 CFU/mL; Log reduction in CFU ([1]; concentration 5 μg/mL): 1.12
7 | CO[C@H]1/C=C/O[C@@]2(C)Oc3c(C)c(O)c4c(c3C2=O)C2=NC3(CCN(CC(C)C)CC3)NC2=C(NC(=O)/C(C)=C\C=C\[C@H](C)[C@H](O)[C@@H](C)[C@@H](O)[C@@H](C)[C@H](OC(C)=O)[C@@H]1C)C4=O [Rifabutin, rifabutin] | – | – | – | – | – | – | – | – | – | – | – | 7.19E+06 CFU/mL | 1.52 | – | – | – | – | – | – | – | CFU/mL ([1]; concentration 5 μg/mL): 9.77E+07 CFU/mL; Log reduction in CFU ([1]; concentration 5 μg/mL): 0.39
8 | Cc1ncc([N+](=O)[O-])n1CCO [Metronidazole, metronidazole] | > 32 µg/mL | > 32 µg/mL | > 32 µg/mL | > 32 µg/mL | > 32 µg/mL | > 32 µg/mL | > 32 µg/mL | > 32 µg/mL | > 32 µg/mL | > 32 µg/mL | > 32 µg/mL | 1.66E+08 CFU/mL | 0.16 | 0.02 | 6.95 Log10 CFU | 6.95 Log10 CFU | 6.15 Log10 CFU | 6.60 Log10 CFU | 7.11 Log10 CFU | 6.85 Log10 CFU | CFU/mL ([1]; concentration 50 μg/mL): 1.02E+08 CFU/mL; Log reduction in CFU ([1]; concentration 50 μg/mL): 0.37; reduction compared to the vehicle group ([3]; […], 12 consecutive days): 0.09 log CFU; Log10 CFU counts in the lungs, Mouse F [3]: 7.31 Log10 CFU; activity against the tested strains ([2]; all tested strains, air containing 5% CO2): no activity

Reference: patent US20260191965A1 (priority 2022, published 2026)
